Experimental data taken from ChEMBL document CHEMBL1201862, “PubChem BioAssay data set” (2004).
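Five concentrations, 48 hours, 96-well plates. Here, GI50 denotes the concentration required for 50% inhibition of growth.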 Active and inactive are the calls of the source. No stated cut-off is given here; in the data, active = GI50 up to about 1.1 µM and inactive = higher.

How the values were obtained:
Test in all cases: NCI anticancer screen, dose series, 48 h
NCI-H522 = system: NCI-H522
SNB-19 = system: SNB-19
EKVX = system: EKVX
HOP-92 = system: HOP-92
ACHN = system: ACHN
SW-620 = system: SW-620
UO-31 = system: UO-31
TK-10 = system: TK-10
SF-268 = system: SF-268
HL-60 = system: HL-60
Hs-578T = system: Hs-578T
DU-145 = system: DU-145
HOP-62 = system: HOP-62
SK-MEL-28 = system: SK-MEL-28
K562 = system: K562
HCT-15 = system: HCT-15
MDA-MB-231 = system: MDA-MB-231
U-251 = system: U-251
NCI-H23 = system: NCI-H23
SK-MEL-2 = system: SK-MEL-2
OVCAR-8 = system: OVCAR-8
LOX IMVI = system: LOX IMVI
OVCAR-4 = system: OVCAR-4
HCT-116 = system: HCT-116
RXF 393 = system: RXF 393
Malme-3M = system: Malme-3M
SN12C = system: SN12C
COLO 205 = system: COLO 205
MCF7 = system: MCF7
UACC-257 = system: UACC-257
MDA-MB-435 = system: MDA-MB-435
HCC 2998 = system: HCC 2998
SR = system: SR
SNB-75 = system: SNB-75
UACC-62 = system: UACC-62
T47D = system: T47D
BT-549 = system: BT-549
NCI-H460 = system: NCI-H460
CCRF-CEM = system: CCRF-CEM
A549 = system: A549
NCI/ADR-RES = system: NCI/ADR-RES
KM12 = system: KM12
OVCAR-3 = system: OVCAR-3
786-0 = system: 786-0
MOLT-4 = system: MOLT-4
M14 = system: M14
SK-MEL-5 = system: SK-MEL-5
SF-295 = system: SF-295
RPMI-8226 = system: RPMI-8226
IGROV-1 = system: IGROV-1
PC-3 = system: PC-3
SF-539 = system: SF-539
OVCAR-5 = system: OVCAR-5
SK-OV-3 = system: SK-OV-3
CAKI-1 = system: CAKI-1
HT-29 = system: HT-29
A498 = system: A498
MDA-N = system: MDA-N
NCI-H226 = system: NCI-H226

CN(CCCNC(=O)c1nn(C)c2c1Cc1ccccc1-2)CCCNC(=O)c1nn(C)c2c1Cc1ccccc1-2
GI50 (NCI-H522): 21.8 µM (inactive)
GI50 (SNB-19): 9.53 µM (inactive)
GI50 (EKVX): 19.2 µM (inactive)
GI50 (HOP-92): 15.6 µM (inactive)
GI50 (ACHN): 16.7 µM (inactive)
GI50 (SW-620): 10.1 µM (inactive)
GI50 (UO-31): 0.614 µM (active)
GI50 (TK-10): 19.1 µM (inactive)
GI50 (SF-268): 19.2 µM (inactive)
GI50 (HL-60): 5.28 µM (inactive)
GI50 (Hs-578T): 20.5 µM (inactive)
GI50 (DU-145): 16.9 µM (inactive)
GI50 (HOP-62): 10.8 µM (inactive)
GI50 (SK-MEL-28): 20.1 µM (inactive)
GI50 (K562): 7.94 µM (inactive)
GI50 (HCT-15): 17.7 µM
GI50 (MDA-MB-231): 19.3 µM (inactive)
GI50 (U-251): 12.5 µM (inactive)
GI50 (NCI-H23): 21.9 µM (inactive)
GI50 (SK-MEL-2): 16 µM (inactive)
GI50 (OVCAR-8): 19.6 µM (inactive)
GI50 (LOX IMVI): 2.49 µM (inactive)
GI50 (OVCAR-4): 16.3 µM (inactive)
GI50 (HCT-116): 14.3 µM (inactive)
GI50 (RXF 393): 13.9 µM (inactive)
GI50 (Malme-3M): 20.5 µM (inactive)
GI50 (SN12C): 16.5 µM (inactive)
GI50 (COLO 205): 13.7 µM (inactive)
GI50 (MCF7): 15 µM (inactive)
GI50 (UACC-257): 12.1 µM (inactive)
GI50 (MDA-MB-435): 10.8 µM (inactive)
GI50 (HCC 2998): 8.22 µM (inactive)
GI50 (SR): 2.99 µM (inactive)
GI50 (SNB-75): 15.2 µM (inactive)
GI50 (UACC-62): 19.4 µM (inactive)
GI50 (T47D): 22.5 µM (inactive)
GI50 (BT-549): 21 µM (inactive)
GI50 (NCI-H460): 18 µM (inactive)
GI50 (CCRF-CEM): 2.18 µM (inactive)
GI50 (A549): 16.5 µM (inactive)
GI50 (NCI/ADR-RES): 24.4 µM (inactive)
GI50 (KM12): 16.2 µM (inactive)
GI50 (OVCAR-3): 16.1 µM (inactive)
GI50 (786-0): 10.7 µM (inactive)
GI50 (MOLT-4): 4.73 µM (inactive)
GI50 (M14): 6.15 µM (inactive)
GI50 (SK-MEL-5): 13.5 µM (inactive)
GI50 (SF-295): 18.2 µM (inactive)
GI50 (RPMI-8226): 13.3 µM (inactive)
GI50 (IGROV-1): 15.3 µM (inactive)
GI50 (PC-3): 16.2 µM (inactive)
GI50 (SF-539): 16.4 µM (inactive)
GI50 (OVCAR-5): 18.3 µM (inactive)
GI50 (SK-OV-3): 16 µM (inactive)
GI50 (CAKI-1): 18.7 µM (inactive)
GI50 (HT-29): 13.3 µM (inactive)
GI50 (A498): 17 µM (inactive)

Cn1c2c3ccccc3nc-2c(O)c2ccccc21 [HYDROXYCRYPTOLEPINE]
GI50 (NCI-H522): > 100 µM (inactive)
GI50 (SNB-19): > 100 µM (inactive)
GI50 (EKVX): > 100 µM (inactive)
GI50 (HOP-92): > 100 µM (inactive)
GI50 (ACHN): 48.6 µM (inactive)
GI50 (SW-620): > 100 µM (inactive)
GI50 (UO-31): > 100 µM (inactive)
GI50 (TK-10): > 100 µM (inactive)
GI50 (SF-268): 0.735 µM (active)
GI50 (DU-145): 3.46 µM (inactive)
GI50 (HOP-62): > 100 µM (inactive)
GI50 (SK-MEL-28): 6.52 µM (inactive)
GI50 (K562): > 100 µM (inactive)
GI50 (HCT-15): 53.3 µM
GI50 (MDA-MB-231): 85.9 µM (inactive)
GI50 (U-251): > 100 µM (inactive)
GI50 (NCI-H23): > 100 µM (inactive)
GI50 (SK-MEL-2): > 100 µM (inactive)
GI50 (OVCAR-8): > 100 µM (inactive)
GI50 (LOX IMVI): > 100 µM (inactive)
GI50 (OVCAR-4): 54.1 µM (inactive)
GI50 (HCT-116): 49.4 µM (inactive)
GI50 (MDA-N): > 100 µM (inactive)
GI50 (RXF 393): > 100 µM (inactive)
GI50 (Malme-3M): > 100 µM (inactive)
GI50 (SN12C): 48.2 µM (inactive)
GI50 (COLO 205): 83.2 µM (inactive)
GI50 (MCF7): > 100 µM (inactive)
GI50 (UACC-257): > 100 µM (inactive)
GI50 (MDA-MB-435): > 100 µM (inactive)
GI50 (HCC 2998): > 100 µM (inactive)
GI50 (SNB-75): 34.1 µM (inactive)
GI50 (UACC-62): > 100 µM (inactive)
GI50 (T47D): > 100 µM (inactive)
GI50 (NCI-H460): 59.2 µM (inactive)
GI50 (CCRF-CEM): 90.6 µM (inactive)
GI50 (A549): > 100 µM (inactive)
GI50 (NCI-H226): > 100 µM (inactive)
GI50 (NCI/ADR-RES): > 100 µM (inactive)
GI50 (KM12): > 100 µM (inactive)
GI50 (OVCAR-3): > 100 µM (inactive)
GI50 (786-0): > 100 µM (inactive)
GI50 (MOLT-4): 27.7 µM (inactive)
GI50 (M14): > 100 µM (inactive)
GI50 (SK-MEL-5): 41.2 µM (inactive)
GI50 (SF-295): > 100 µM (inactive)
GI50 (RPMI-8226): 45.7 µM (inactive)
GI50 (IGROV-1): 35.4 µM (inactive)
GI50 (PC-3): > 100 µM (inactive)
GI50 (SF-539): 50.5 µM (inactive)
GI50 (OVCAR-5): > 100 µM (inactive)
GI50 (SK-OV-3): > 100 µM (inactive)
GI50 (CAKI-1): 8.91 µM (inactive)
GI50 (HT-29): > 100 µM (inactive)
GI50 (A498): > 100 µM (inactive)
